“And” between values parts separate entries of the source, which are not always exact repeats. Equal values may be shown once. A value given as a limit tells only on which side of the number the result lay.

Consider 42 compounds from patent publication US20050148627A1, “Benzopyran compounds for use in the treatment and prevention of inflammation related conditions” (priority 2003, published 2005).

The test has as its target COX-1 (Homo sapiens, UniProt P23219). Kind of test: biochemical.

Sequence of COX-1 (P23219 24-599): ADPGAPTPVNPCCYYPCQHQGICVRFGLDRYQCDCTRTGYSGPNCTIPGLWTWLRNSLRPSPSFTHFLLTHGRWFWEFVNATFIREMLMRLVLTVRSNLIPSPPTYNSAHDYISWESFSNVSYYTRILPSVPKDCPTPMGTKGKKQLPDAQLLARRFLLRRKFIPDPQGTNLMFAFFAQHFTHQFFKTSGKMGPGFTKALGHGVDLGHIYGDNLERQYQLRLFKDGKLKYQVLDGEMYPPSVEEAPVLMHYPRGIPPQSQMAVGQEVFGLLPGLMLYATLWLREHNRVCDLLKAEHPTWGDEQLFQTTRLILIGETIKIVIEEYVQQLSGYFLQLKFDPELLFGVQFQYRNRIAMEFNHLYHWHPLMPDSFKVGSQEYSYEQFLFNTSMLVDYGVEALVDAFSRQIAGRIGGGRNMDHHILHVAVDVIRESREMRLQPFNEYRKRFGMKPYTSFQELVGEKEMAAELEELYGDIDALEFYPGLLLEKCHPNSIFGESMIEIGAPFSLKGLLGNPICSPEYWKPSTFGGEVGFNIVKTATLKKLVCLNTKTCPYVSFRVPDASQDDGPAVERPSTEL

For orientation: IC50 means the concentration that inhibits the measured activity by half. A high value points to a need for much substance. Consider `Cc1cc(C)c2c(c1)C=C(C(=O)O)C(C(F)(F)F)O2` (racemic) [Example 32a, 6,8-dimethyl-2-(trifluoromethyl)-2H-chromene-3-carboxylic acid], for which the half-maximal inhibitory concentration (IC50) is > 100 µM and 185 µM and 204 µM and 165 µM and 128 µM.

In the case of `Cc1cc(C)c2c(c1Cl)C=C(C(=O)O)C(C(F)(F)F)O2` (stereo not drawn) [Example 33, 5-chloro-6,8-dimethyl-2-(trifluoromethyl)-2H-chromene-3-carboxylic acid], the IC50 was 8.28 µM and 6.09 µM and 43.4 µM and 18.5 µM.

On to `Cc1cc2c(c(C)c1Cl)C=C(C(=O)O)[C@H](C(F)(F)F)O2` [Example 101, (2R)-6-chloro-5,7-dimethyl-2-(trifluoromethyl)-2H-chromene-3-carboxylic acid], for which the IC50 is > 100 µM and 430 µM and > 500 µM.

Turning to `CC(C)(C)CCc1cc2c(cc1Cl)C=C(C(=O)O)C(C(F)(F)F)O2` (stereo not drawn) [Example 9b, 6-chloro-7-(3,3-dimethylbutyl)-2-(trifluoromethyl)-2H-chromene-3-carboxylic acid], the half-maximal inhibitory concentration (IC50) is 19 µM and 17.9 µM.

With `Cc1c(C)c2c(c(C)c1Cl)C=C(C(=O)O)C(C(F)(F)F)O2` (stereo not drawn) [Example 104], the IC50 was 6.75 µM and 12.1 µM.

As to `COc1c(Cl)c(Cl)c(C)c2c1OC(C(F)(F)F)C(C(=O)O)=C2` (stereo not drawn) [Example 29, 6,7-dichloro-8-methoxy-5-methyl-2-(trifluoromethyl)-2H-chromene-3-carboxylic acid], the IC50 is > 100 µM and 217 µM.

For `O=C(O)C1=Cc2ccc(Cc3ccc(F)cc3)cc2OC1C(F)(F)F` (stereo not drawn) [Example 9bb, 7-(4-fluorobenzyl)-2-(trifluoromethyl)-2H-chromene-3-carboxylic acid], inhibition was half-maximal at 37.4 µM (IC50).

In the case of `O=C(O)C1=Cc2cc(OC(F)(F)F)cc(C#Cc3ccccc3)c2OC1C(F)(F)F` (stereo not drawn) [Example 21c, 8-(phenylethynyl)-6-(trifluoromethoxy)-2-(trifluoromethyl)-2H-chromene-3-carboxylic acid], the IC50 is 19.2 µM and 9.68 µM.

Take `C=CCc1cc(OC(F)(F)F)cc2c1OC(C(F)(F)F)C(C(=O)O)=C2` (stereo not drawn) [Example 21s, 8-allyl-6-(trifluoromethoxy)-2-(trifluoromethyl)-2H-chromene-3-carboxylic acid]: the half-inhibitory concentration (IC50) is > 100 µM and 119 µM.

`CCCCCCOc1cc(Cl)c2c(c1)C=C(C(=O)O)C(C(F)(F)F)O2` (stereo not drawn) [Example 17e, 8-chloro-6-(hexyloxy)-2-(trifluoromethyl)-2H-chromene-3-carboxylic acid] yielded a concentration for half-maximal inhibition (IC50) of less than 0.137 µM.

Compound `CC(c1ccccc1)c1ccc2c(c1)OC(C(F)(F)F)C(C(=O)O)=C2` (stereo not drawn) [Example 37b, 7-(1-phenylethyl)-2-(trifluoromethyl)-2H-chromene-3-carboxylic acid] came in with a 50% inhibitory concentration (IC50) greater than 100 µM.

Turning to `CC(C)Cc1cc(OC(F)(F)F)cc2c1OC(C(F)(F)F)C(C(=O)O)=C2` (stereo not drawn) [Example 21h, 8-isobutyl-6-(trifluoromethoxy)-2-(trifluoromethyl)-2H-chromene-3-carboxylic acid], the half-inhibitory concentration (IC50) is > 100 µM and 217 µM.

`COCC(C)(C)c1cc2c(cc1Cl)C=C(C(=O)O)C(C(F)(F)F)O2` (stereo not drawn) [Example 116, 6-chloro-7-(2-methoxy-1,1-dimethylethyl)-2-(trifluoromethyl)-2H-chromene-3-carboxylic acid] yielded a half-maximal inhibitory concentration (IC50) greater than 100 µM.

In turn, `O=C(O)C1=Cc2cc(Cl)c(OCc3ccccc3)c(Cl)c2OC1C(F)(F)F` (stereo not drawn) [Example 1g, 7-(benzyloxy)-6,8-dichloro-2-(trifluoromethyl)-2H-chromene-3-carboxylic acid] came in with an IC50 of 21 µM.

`CC(C)(C#N)c1cc2c(cc1Cl)C=C(C(=O)O)C(C(F)(F)F)O2` (stereo not drawn) [Example 118, 6-chloro-7-(1-cyano-1-methylethyl)-2-(trifluoromethyl)-2H-chromene-3-carboxylic acid]: the IC50 was greater than 100 µM.

For `COc1cc2c(cc1C(C)(C)C)OC(C(F)(F)F)C(C(=O)O)=C2` (stereo not drawn) [Example 112, 7-tert-butyl-6-methoxy-2-(trifluoromethyl)-2H-chromene-3-carboxylic acid], the IC50 is greater than 100 µM.

Turning to `C=C(C)C#Cc1cc(Cl)cc2c1OC(C(F)(F)F)C(C(=O)O)=C2` (stereo not drawn) [Example 36, 6-chloro-8-(3-methylbut-3-en-1-ynyl)-2-(trifluoromethyl)-2H-chromene-3-carboxylic acid], the IC50 was 78.5 µM and 52.3 µM.

Regarding `O=C(O)C1=Cc2cc(Cl)c(N3CCC3)cc2OC1C(F)(F)F` (stereo not drawn) [Example 8j, 7-azetidin-1-yl-6-chloro-2-(trifluoromethyl)-2H-chromene-3-carboxylic acid], the IC50 is greater than 100 µM.

For `O=C(O)C1=Cc2c(Cl)ccc(OCc3ccccc3)c2OC1C(F)(F)F` (stereo not drawn) [Example 23c, 8-(benzyloxy)-5-chloro-2-(trifluoromethyl)-2H-chromene-3-carboxylic acid], the IC50 is 48.4 µM and 62.6 µM.

As for `CN(Cc1ccccc1)c1cc2c(cc1Cl)C=C(C(=O)O)C(C(F)(F)F)O2` (stereo not drawn) [Example 8i, 7-[benzyl(methyl)amino]-6-chloro-2-(trifluoromethyl)-2H-chromene-3-carboxylic acid], it took 14.1 µM to reach half-maximal inhibition (IC50).

In the case of `CC#Cc1cc(OC(F)(F)F)cc2c1OC(C(F)(F)F)C(C(=O)O)=C2` (stereo not drawn) [Example 21d, 8-prop-1-ynyl-6-(trifluoromethoxy)-2-(trifluoromethyl)-2H-chromene-3-carboxylic acid], the IC50 is 0.182 µM.

On to `O=C(O)C1=Cc2c(cc(Cc3ccccc3)c(Cl)c2Cl)OC1C(F)(F)F` (stereo not drawn) [Example 13, 7-benzyl-5,6-dichloro-2-(trifluoromethyl)-2H-chromene-3-carboxylic acid], for which the 50% inhibitory concentration (IC50) is 4.18 µM and 2.79 µM.

In the case of `CCOc1ccc(Br)c2c1OC(C(F)(F)F)C(C(=O)O)=C2` (stereo not drawn) [Example 24b, 5-bromo-8-ethoxy-2-(trifluoromethyl)-2H-chromene-3-carboxylic acid], the IC50 was greater than 500 µM.

Regarding `O=C(O)C1=Cc2cc(Cl)c(O)c(Cl)c2OC1C(F)(F)F` (stereo not drawn) [Example 1a, 6,8-dichloro-7-hydroxy-2-(trifluoromethyl)-2H-chromene-3-carboxylic acid], the half-maximal inhibitory concentration (IC50) is greater than 500 µM.

Turning to `CCC#Cc1cc(OC(F)(F)F)cc2c1OC(C(F)(F)F)C(C(=O)O)=C2` (stereo not drawn) [Example 21q, 8-but-1-ynyl-6-(trifluoromethoxy)-2-(trifluoromethyl)-2H-chromene-3-carboxylic acid], it took 5.71 µM to reach half-maximal inhibition (IC50).

Compound `N#Cc1cc(OC(F)(F)F)cc2c1OC(C(F)(F)F)C(C(=O)O)=C2` (stereo not drawn) [Example 21p, 8-cyano-6-(trifluoromethoxy)-2-(trifluoromethyl)-2H-chromene-3-carboxylic acid] returned an IC50 of 39.2 µM.

For `CC(C)CN(C)c1c(Cl)cc2c(c1Cl)OC(C(F)(F)F)C(C(=O)O)=C2` (stereo not drawn) [Example 38a, 6,8-dichloro-7-[isobutyl(methyl)amino]-2-(trifluoromethyl)-2H-chromene-3-carboxylic acid], the 50% inhibitory concentration (IC50) is less than 0.137 µM.

`Cc1cc(Cl)ccc1Cc1cc2c(cc1Cl)C=C(C(=O)O)C(C(F)(F)F)O2` (stereo not drawn) [Example 9p, 6-chloro-7-(4-chloro-2-methylbenzyl)-2-(trifluoromethyl)-2H-chromene-3-carboxylic acid]: the 50% inhibitory concentration (IC50) was found to be 1.51 µM.

For the compound `CCCCC(C)(C)c1ccc2c(c1)OC(C(F)(F)F)C(C(=O)O)=C2` (stereo not drawn) [Example 109, 7-(1,1-dimethylpentyl)-2-(trifluoromethyl)-2H-chromene-3-carboxylic acid], the IC50 was 0.413 µM and < 0.137 µM.

With `COc1cc(Cl)c2c(c1Cl)C=C(C(=O)O)C(C(F)(F)F)O2` (stereo not drawn) [Example 18a, 5,8-dichloro-6-methoxy-2-(trifluoromethyl)-2H-chromene-3-carboxylic acid], the IC50 was less than 0.137 µM.

In the case of `CCC(CC)COc1c(Cl)cc2c(c1C)OC(C(F)(F)F)C(C(=O)O)=C2` (stereo not drawn) [Example 3b, 6-chloro-7-(2-ethylbutoxy)-8-methyl-2-(trifluoromethyl)-2H-chromene-3-carboxylic acid], the IC50 was 15.8 µM and 6.7 µM.

As to `CC(C)(C)CCOc1c(Cl)cc2c(c1Cl)OC(C(F)(F)F)C(C(=O)O)=C2` (stereo not drawn) [Example 1d, 6,8-dichloro-7-(3,3-dimethylbutoxy)-2-(trifluoromethyl)-2H-chromene-3-carboxylic acid], the half-inhibitory concentration (IC50) was found to be 49.2 µM.

`O=C(O)C1=Cc2cc(Cl)c(Cc3ccc(F)c(F)c3)cc2OC1C(F)(F)F` (stereo not drawn) [Example 9z, 6-chloro-7-(3,4-difluorobenzyl)-2-(trifluoromethyl)-2H-chromene-3-carboxylic acid]: the IC50 turned out to be 27.4 µM.

In the case of `Cc1ccc(Cc2cc3c(cc2Cl)C=C(C(=O)O)C(C(F)(F)F)O3)c(C)c1` (stereo not drawn) [Example 9s, 6-chloro-7-(2,4-dimethylbenzyl)-2-(trifluoromethyl)-2H-chromene-3-carboxylic acid], the IC50 is 5.85 µM and 5.72 µM.

Consider `Cc1c(OCCC(C)C)c(Cl)cc2c1OC(C(F)(F)F)C(C(=O)O)=C2` (stereo not drawn) [Example 3h, 6-chloro-7-(isopentyloxy)-8-methyl-2-(trifluoromethyl)-2H-chromene-3-carboxylic acid], for which the IC50 was 17 µM and 18.5 µM and 18.4 µM.

For the compound `CCc1cc(OC(F)(F)F)cc2c1OC(C(F)(F)F)C(C(=O)O)=C2` (stereo not drawn) [Example 21g, 8-ethyl-6-(trifluoromethoxy)-2-(trifluoromethyl)-2H-chromene-3-carboxylic acid], the half-maximal inhibitory concentration (IC50) was 24.4 µM and 21.6 µM and 9.14 µM and 10.7 µM.

Consider `CCCc1cc2c(cc1Cc1ccccc1)OC(C(F)(F)F)C(C(=O)O)=C2` (stereo not drawn) [Example 42c, 7-benzyl-6-propyl-2-(trifluoromethyl)-2H-chromene-3-carboxylic acid], for which the half-maximal inhibitory concentration (IC50) is greater than 100 µM.

For the compound `CCc1cc2c(cc1Cc1ccccc1)OC(C(F)(F)F)C(C(=O)O)=C2` (stereo not drawn) [Example 42b, 7-benzyl-6-ethyl-2-(trifluoromethyl)-2H-chromene-3-carboxylic acid], the IC50 is greater than 100 µM.

`COc1c(Cl)c(Cl)c2c(c1Cl)C=C(C(=O)O)C(C(F)(F)F)O2` (stereo not drawn) [Example 20a, 5,7,8-trichloro-6-methoxy-2-(trifluoromethyl)-2H-chromene-3-carboxylic acid]: the IC50 was less than 0.137 µM.

For `Cc1c(OCC(C)C)c(Cl)cc2c1OC(C(F)(F)F)C(C(=O)O)=C2` (stereo not drawn) [Example 3e, 6-chloro-7-isobutoxy-8-methyl-2-(trifluoromethyl)-2H-chromene-3-carboxylic acid], the IC50 was less than 0.137 µM.

`COc1cc(Cl)c2c(c1)C=C(C(=O)O)[C@@H](C(F)(F)F)O2` (single isomer, unassigned) [Example 17i]: the IC50 was 81.1 µM and 36.4 µM.

Compound `O=C(O)C1=Cc2ccc(OCc3ccco3)cc2OC1C(F)(F)F` (stereo not drawn) [Example 5f, 7-(2-furylmethoxy)-2-(trifluoromethyl)-2H-chromene-3-carboxylic acid] gave a half-maximal inhibitory concentration (IC50) greater than 100 µM.
